Reference: publication PMC10218596 (International Journal of Molecular Sciences, 2023)

Experiments:
[1] = biological target: h[α6I56V/α3]β4 (Homo sapiens, UniProt P30926+Q15825, I89V, form not given); assay type: cell-based; conditions: ACh on h[α6I56V/α3]β4
[2] = biological target: T1, hα6/α3β4 (Homo sapiens, UniProt P30926+P32297+Q15825); assay: Electrophysiological assay, ACh concentration-response (Xenopus oocytes); assay type: cell-based; conditions: ACh on hα6/α3β4
T1 construct: splicing the N-terminal extracellular domain of the α6 subunit with the α3 subunit; host or cells: Xenopus laevis oocytes injected with cRNA (1:1)
T1 sequence (Q15825+P32297 fused with the stated changes): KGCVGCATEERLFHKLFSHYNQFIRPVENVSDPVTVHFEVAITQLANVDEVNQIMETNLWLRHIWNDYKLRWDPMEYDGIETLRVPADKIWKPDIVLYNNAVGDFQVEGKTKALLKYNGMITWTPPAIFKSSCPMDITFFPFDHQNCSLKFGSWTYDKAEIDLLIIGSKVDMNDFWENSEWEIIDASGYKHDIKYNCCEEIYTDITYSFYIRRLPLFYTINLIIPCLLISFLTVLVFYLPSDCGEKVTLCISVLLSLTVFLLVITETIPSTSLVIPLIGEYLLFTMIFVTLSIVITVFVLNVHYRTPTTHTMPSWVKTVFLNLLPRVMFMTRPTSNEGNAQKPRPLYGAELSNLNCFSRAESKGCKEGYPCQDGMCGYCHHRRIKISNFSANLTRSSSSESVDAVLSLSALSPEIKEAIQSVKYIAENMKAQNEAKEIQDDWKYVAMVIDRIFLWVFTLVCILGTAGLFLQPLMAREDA
T1 sequence (P30926 22-498): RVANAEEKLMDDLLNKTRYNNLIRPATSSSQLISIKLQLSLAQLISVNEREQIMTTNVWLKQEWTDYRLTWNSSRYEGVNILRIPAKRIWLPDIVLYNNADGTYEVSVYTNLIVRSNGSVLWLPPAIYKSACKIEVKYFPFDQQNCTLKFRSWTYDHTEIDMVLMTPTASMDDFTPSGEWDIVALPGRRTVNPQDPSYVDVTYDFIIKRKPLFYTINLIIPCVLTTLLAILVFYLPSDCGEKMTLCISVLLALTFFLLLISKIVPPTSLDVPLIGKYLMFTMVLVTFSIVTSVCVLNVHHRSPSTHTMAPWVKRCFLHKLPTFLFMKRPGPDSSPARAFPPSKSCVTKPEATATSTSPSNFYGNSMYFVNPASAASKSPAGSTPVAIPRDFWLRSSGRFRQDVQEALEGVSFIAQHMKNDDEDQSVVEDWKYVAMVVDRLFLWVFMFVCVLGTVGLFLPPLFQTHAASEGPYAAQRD

h[α6I56V/α3]β4, sequence (Q15825 26-239 I89V, form open): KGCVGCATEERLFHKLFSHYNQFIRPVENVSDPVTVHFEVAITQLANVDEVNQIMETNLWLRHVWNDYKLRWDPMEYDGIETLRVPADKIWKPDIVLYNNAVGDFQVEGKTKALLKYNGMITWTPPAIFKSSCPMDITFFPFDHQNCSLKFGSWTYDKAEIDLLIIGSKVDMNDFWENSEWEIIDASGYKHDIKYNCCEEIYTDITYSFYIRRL
h[α6I56V/α3]β4, sequence (P30926 22-498, form open): as the sequence (P30926 22-498) above
h[α6I56V/α3]β4, sequence (P32297 241-505 partner, form open): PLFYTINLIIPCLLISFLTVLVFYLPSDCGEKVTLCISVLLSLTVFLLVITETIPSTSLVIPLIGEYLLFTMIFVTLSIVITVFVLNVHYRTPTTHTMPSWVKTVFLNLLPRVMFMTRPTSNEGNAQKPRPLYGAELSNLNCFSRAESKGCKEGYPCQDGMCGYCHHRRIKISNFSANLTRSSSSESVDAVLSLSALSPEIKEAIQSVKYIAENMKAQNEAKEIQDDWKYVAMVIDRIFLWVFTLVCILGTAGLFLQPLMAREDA

SMILES: CC(=O)OCC[N+](C)(C)C [ACh, acetylcholine chloride]
- Hill Slope [1]: 1.3 (1.1–1.5)
- Hill Slope [2]: 1.4 (1.2–1.7)
